Test results from patent US4345938A, “Herbicidal 2-haloacetanilides” (Monsanto Company, priority 1980, dated 1982).
Where two headings read alike, the source gives them in different places.

Assays:
Format in all cases: in vivo
[1] = test system: Rice; assay: Field transplant rice test, applied 0 DAT, rice injury; conditions: Oryza sativa, 0 h, read-out: Percent Inhibition, Rice; for inhibition at 375 g/ha: 0.375 Kg/Ha; for inhibition at 750 g/ha: 0.75 Kg/Ha; for inhibition at 1500 g/ha: 1.5 Kg/Ha; for inhibition at 3000 g/ha: 3.0 Kg/Ha
Description: (§1) In further comparative tests, a preferred compound of this invention (Example 1) was tested in the field with prior art Compounds A-D. These tests were conducted under conditions reflecting herbicide application times generally favorable to all herbicides in the test. The timing of application of herbicides to transplant rice is very important, whether, as in some instances, prior to transplanting the rice; in other instances, at the time of transplanting or else after transplanting. Application times are conventionally referred to as "days before transplant" (DBT) or "days after transplant" ("DAT"). The field test data in Table IV was obtained from a test in which the herbicides were applied at the time of transplant, i.e., "0 DAT", with observations being made weekly up to six weeks after transplant ("WAT") beginning at two weeks after transplant; for illustrative and representative purposes, only the early, middle and late period observations, i.e., 2 WAT, 4 WAT and 6 WAT, are shown in Table IV. The data in Table IV is for rates of application common to all herbicides in the test, i.e., from 3.0 kg/ha (2.67 lb/A) down to 0.375 kg/ha (0.34 lb/A). All herbicides were applied at their actual or expected use rates, i.e., as granules containing 2.5% by weight herbicide for the compound of Example 1, Compounds B, C and D and 5.0% by weight for Compound A.

[2] = test system: Cyperus serotinus; assay: Field transplant rice test, applied 0 DAT, CS; conditions: 0 h, read-out: Percent Inhibition, CS; for inhibition at 375 g/ha: 0.375 Kg/Ha; for inhibition at 750 g/ha: 0.75 Kg/Ha; for inhibition at 1500 g/ha: 1.5 Kg/Ha; for inhibition at 3000 g/ha: 3.0 Kg/Ha
Description: (§2) The test data in Table III for all compounds was obtained under identical test conditions. The weeds used in the tests herein have the following abbreviations in the tables: Echinochloa crus-galli (EC), Monochloria vaginalis (MV), Cyperus Serotinus (CS), Eleocharis Kuroguwai (EK) and Sagittaria trifolia (ST).
as §1

[3] = test system: Sagittaria trifolia; assay: Field transplant rice test, applied 0 DAT, ST; conditions: 0 h, read-out: Percent Inhibition, ST; for inhibition at 375 g/ha: 0.375 Kg/Ha; for inhibition at 750 g/ha: 0.75 Kg/Ha; for inhibition at 1500 g/ha: 1.5 Kg/Ha; for inhibition at 3000 g/ha: 3.0 Kg/Ha
Description: as §2, §1

[4] = test system: Rice; assay: Field transplant rice test, applied 9 DAT, rice injury; conditions: Oryza sativa, 216 h, read-out: Percent Inhibition, Rice; for inhibition at 375 g/ha: 0.375 Kg/Ha; for inhibition at 750 g/ha: 0.75 Kg/Ha; for inhibition at 1500 g/ha: 1.5 Kg/Ha; for inhibition at 3000 g/ha: 3.0 Kg/Ha
Description: as §1
(§3) In Table V are presented field data showing the relative performance of the compound of Example 1 and Compounds A-D applied 9 DAT, with observations being made weekly from 3 WAT to 7 WAT; again, for illustrative and representative purposes, only the early, middle and late period observations are reported in Table V, the herbicide rates and concentrations of active ingredients the same as is shown in Table IV.

[5] = test system: Cyperus serotinus; assay: Field transplant rice test, applied 9 DAT, CS; conditions: for inhibition at 375 g/ha / inhibition at 750 g/ha / inhibition at 1500 g/ha / inhibition at 3000 g/ha: Cyperus serotinus, 216 h, read-out: Percent Inhibition, CS; for inhibition at 375 g/ha: 0.375 Kg/Ha; for inhibition at 750 g/ha: 0.75 Kg/Ha; for inhibition at 1500 g/ha: 1.5 Kg/Ha; for inhibition at 3000 g/ha: 3.0 Kg/Ha
Source text: In the discussion of data below, occasional reference is made to herbicide application rates symbolized as "GR15 " and "GR85 "; these rates are given in kilograms per hectare (kg/ha) which are convertible into pounds per acre (lbs/A) by dividing the kg/ha rate by 1.12.
A further guide to the effectiveness of a chemical as a selective herbicide is the "selectivity factor" ("SF") for a herbicide in given crops and weeds. The selectivity factor is a measure of the relative degree of crop safety and weed injury and is expressed in terms of the GR15 /GR85 ratio, i.e., the GR15 rate for the crop divided by the GR85 rate for the weed, both rates in kg/ha (lb/A.)
as §2, §1, §3

CCCOCCN(C(=O)CCl)c1c(CC)cccc1CC [Compound D, 2',6'-diethyl-N-(n-propoxyethyl)-2-chloroacetanilide]
inhibition at 375 g/ha ([1]; 2 WAT): 0% | inhibition at 375 g/ha ([1]; 4 WAT): 3% | inhibition at 375 g/ha ([1]; 6 WAT): 2% | inhibition at 750 g/ha ([1]; 2 WAT): 2% | inhibition at 750 g/ha ([1]; 4 WAT): 2% | inhibition at 750 g/ha ([1]; 6 WAT): 0% | inhibition at 1500 g/ha ([1]; 2 WAT): 10% | inhibition at 1500 g/ha ([1]; 4 WAT): 8% | inhibition at 1500 g/ha ([1]; 6 WAT): 7% | inhibition at 3000 g/ha ([1]; 2 WAT): 8% | inhibition at 3000 g/ha ([1]; 4 WAT): 7% | inhibition at 3000 g/ha ([1]; 6 WAT): 5% | inhibition at 375 g/ha ([2]; 2 WAT): 82% | inhibition at 375 g/ha ([2]; 4 WAT): 65% | inhibition at 375 g/ha ([2]; 6 WAT): 33% | inhibition at 750 g/ha ([2]; 2 WAT): 73% | inhibition at 750 g/ha ([2]; 4 WAT): 77% | inhibition at 750 g/ha ([2]; 6 WAT): 70% | inhibition at 1500 g/ha ([2]; 2 WAT): 92% | inhibition at 1500 g/ha ([2]; 4 WAT): 93% | inhibition at 1500 g/ha ([2]; 6 WAT): 93% | inhibition at 3000 g/ha ([2]; 2 WAT): 67% | inhibition at 3000 g/ha ([2]; 4 WAT): 65% | inhibition at 3000 g/ha ([2]; 6 WAT): 60% | inhibition at 375 g/ha ([3]; 2 WAT): 20% | inhibition at 375 g/ha ([3]; 4 WAT): 2% | inhibition at 375 g/ha ([3]; 6 WAT): 0% | inhibition at 750 g/ha ([3]; 2 WAT): 28% | inhibition at 750 g/ha ([3]; 4 WAT): 10% | inhibition at 750 g/ha ([3]; 6 WAT): 7% | inhibition at 1500 g/ha ([3]; 2 WAT): 23% | inhibition at 1500 g/ha ([3]; 4 WAT): 27% | inhibition at 1500 g/ha ([3]; 6 WAT): 22% | inhibition at 3000 g/ha ([3]; 2 WAT): 22% | inhibition at 3000 g/ha ([3]; 4 WAT): 28% | inhibition at 3000 g/ha ([3]; 6 WAT): 18% | inhibition at 375 g/ha ([4]; 3 WAT): 8% | inhibition at 375 g/ha ([4]; 5 WAT): 7% | inhibition at 375 g/ha ([4]; 7 WAT): 7% | inhibition at 750 g/ha ([4]; 3 WAT): 10% | inhibition at 750 g/ha ([4]; 5 WAT): 5% | inhibition at 750 g/ha ([4]; 7 WAT): 2% | inhibition at 1500 g/ha ([4]; 3 WAT): 10% | inhibition at 1500 g/ha ([4]; 5 WAT): 5% | inhibition at 1500 g/ha ([4]; 7 WAT): 7% | inhibition at 3000 g/ha ([4]; 3 WAT): 15% | inhibition at 3000 g/ha ([4]; 5 WAT): 5% | inhibition at 3000 g/ha ([4]; 7 WAT): 8% | inhibition at 375 g/ha ([5]; 3 WAT): 92% | inhibition at 375 g/ha ([5]; 5 WAT): 87% | inhibition at 375 g/ha ([5]; 7 WAT): 67% | inhibition at 750 g/ha ([5]; 3 WAT): 77% | inhibition at 750 g/ha ([5]; 5 WAT): 67% | inhibition at 750 g/ha ([5]; 7 WAT): 33% | inhibition at 1500 g/ha ([5]; 3 WAT): 77% | inhibition at 1500 g/ha ([5]; 5 WAT): 77% | inhibition at 1500 g/ha ([5]; 7 WAT): 100% | inhibition at 3000 g/ha ([5]; 3 WAT): 90% | inhibition at 3000 g/ha ([5]; 5 WAT): 100% | inhibition at 3000 g/ha ([5]; 7 WAT): 100% | selectivity factor (GR15/GR85), CS in transplant rice ([5]; between 3 WAT and 7 WAT): 1
